Data published in US11654195B2, “Eco-friendly smart photosensitizer and photo-stem cell therapy product comprising same” (priority 2019, dated 2023).

System: HeLa cells
Assay: Confirmation of location of nanosphere in cells (confocal microscope)
Format: cell-based
Conditions: HeLa cells 1×10^5, 1.25 μg/ml
Experimental: In order to observe cancer cell targeting of nanospheres of the biocompatible material sample in which the hydroxypropyl methylcellulose of Example 1 was bonded to porfimer sodium by an ester bond, that is, the accumulation location and accumulation rate in cancer cells, HeLa cells (1×10^5 cells) were treated with each of 1.25 μg/ml of the nanospheres of the biocompatible material sample in which the hydroxypropyl methylcellulose prepared in Example 1 was bonded to porfimer sodium by an ester bond and 1.25 μg/ml of unmodified porfimer sodium as a control and then the location in cells over time was observed using a confocal microscope.

Q: With “porfimer sodium [unmodified porfimer sodium]” as the substance, how does the “location in cells over time” value read?
A: located at different sites in cells
